In US20240382438A1, “Calcium Channel Blockers and Methods Thereof” (University of Maryland, Eastern Shore, priority 2023, published 2024):
Entries after “also recorded” stand apart in the source; their conditions may differ.

Experiments:
[1] = target: T1, human Cav3.3 (Homo sapiens, UniProt Q9P0X4); assay: Whole-cell patch clamp of T-type Ca2+ currents in Cav3.3-stable transfected HEK 293 cells; format: cell-based
T1 construct: host or cells: HEK 293
Description: (§1) ND7/23 cells are derived from the fusion of mouse neuroblastoma and rat dorsal root ganglion cells, which generates a more homogeneous sensory neuron-like cell population. ND7/23 cells were purchased from Sigma-Aldrich (RRID:CVCL_4259). Culture and differentiation of ND7/23 cells was performed as previously described. Briefly, ND7/23 cells were cultured in DMEM/F12 culture media (Millipore, Cat. #DF-041-B), supplemented with 0.5% fetal bovine serum (Invitrogen, Cat. #10437010), db-cAMP (1 mM, Sigma-Aldrich, Cat. #D0627), and nerve growth factor (NGF, 50 ng/mL, Sigma-Aldrich, Ca. #N2513). To remove any proliferating cells, cultures were treated with uridine (20 μM, Sigma-Aldrich, Cat. #U3003) and fluorodeoxyuridine (20 μM, Sigma-Aldrich, Cat. #F0503). Cells were maintained in differentiation media without uridine and fluorodeoxyuridin after induction of differentiation. ND7/23 cells were maintained in differentiation media for ≤6 days. HEK 293 cells that were stabled transfected with the human Cav3.2 and Cav3.3 channel subunits were a gift of Dr. E. Perez-Reyes (University of Virginia). Cav3.2 (or Cav3.3)-stabled transfected HEK 293 cells were culture in DMEM/F12 culture media, supplemented with 5% fetal bovine serum, 50 U/mL penicillin and 50 μg/mL streptomycin. ND7/23 and HEK 293 cells were grown in an incubator at 37° C. in the presence of 5% CO2/95% air humidified atmosphere. Cells passaged less than 20 times were used in this work. Cells were grown in poly-D-lysine-coated glass coverslips for electrophysiological recordings.
(§2) Whole cell recordings were performed as previously described. A Nikon Eclipse Ti inverted microscope equipped with Hoffman optics and epifluorescence filters was used to visualize individual cells. Recordings were performed at room temperature (22-24° C.) using glass electrodes made from thin wall borosilicate glass (3-5 MΩ). For electrophysiological recordings of inward Ca^2+ currents, outward K^+ currents were eliminated by equimolar substitution of K^+ with Cs^+ in the pipette solution, whereas inward Na^+ currents were eliminated by the use of TEA ions in the external solution, which are unable to go through voltage-gated Na^+ channels. The pipette solution consisted of (in mM) CsCl (120), MgCl2(2), HEPES (10), EGTA (10), ATP (1), and GTP (0.1), pH 7.4 with CsOH. The composition of the normal external saline used for measurements of Ca^2+ currents was (in mM): tetraethylammonium chloride (TEACl, 145), CaCl2 (10), MgCl2(1), HEPES (10), and glucose (5), pH 7.4 adjusted with CsOH. Ca^2+ currents were generated by applying a 200-500 ms-depolarizing step to various potentials from a holding potential of −100 mV. The external solution used to measure Na^+ currents contained (in mM) NaCl (145), KCl (5.3), CaCl2 (0.5), MgCl2 (5.7), HEPES (13), and glucose (5), pH 7.4 adjusted with KOH. The composition of the CsCl-pipette solution used to record Na^+ currents was the same describe above. Na^+ currents were generated by applying a 20 ms-depolarizing step to various potentials from a holding potential of −100 mV. To assess drug-evoked changes on specific ionic conductances, current amplitudes were expressed as current densities as previously reported. To assess current densities, cell size was normalized by dividing current amplitudes by cell capacitance. Cell capacitance was determined by integrating the transient current evoked by a 10-mV voltage step from a holding potential of −60 mV.
(§3) A MULTICLAMP 700A amplifier and PCLAMP software (Axon Instruments) was used to deliver voltage commands and to perform data acquisition and analysis. Pipette offset, whole cell capacitance, and series resistance were compensated automatically with the MultiClamp 700B Commander. Only cells with stable seals and series resistance (≤10 MΩ) were analyzed. Sampling rates were between 5 and 10 kHz. Leak currents were subtracted online using a P/4 protocol. […]

[2] = target: T2, human Cav3.2 (Homo sapiens, UniProt O95180); assay: Whole-cell patch clamp of T-type Ca2+ currents in Cav3.2-stable transfected HEK 293 cells; format: cell-based
T2 construct: host or cells: HEK 293
Description: Certain exemplary embodiments have undergone target identification studies to discover a better officious T-type calcium blocker. The fourteen trifluoromethylated N-benzamide enaminone compounds were synthesized, purified, and structure confirmed using gas chromatography/mass spectroscopy, nuclear magnetic resonance, and elemental analysis. Preliminary in vitro whole cell patch clamp experiments were performed to assess the inhibitory effects of several target analogs on voltage-activated calcium currents in human embryonic kidney (HEK-293) cells. Cav3.2 transfected HEK 293 cells were treated with 50 μM of test compounds and compared to the control group (none pretreated HEK 293 cells).
as §1
as §2, with “To assess current densities, cell size was normalized by dividing current amplitudes by cell capacitance. Cell capacitance was determined by integrating the transient current evoked by a 10-mV voltage step from a holding potential of −60 mV.” left out

[3] = test system: voltage-activated Na^+ channels; assay: Whole-cell recording of Na+ currents in differentiated ND7/23 cells; format: cell-based, mouse neuroblastoma and rat dorsal root ganglion cells; details: 50 μM
Description: as §1
Whole cell recordings were performed as previously described. A Nikon Eclipse Ti inverted microscope equipped with Hoffman optics and epifluorescence filters was used to visualize individual cells. Recordings were performed at room temperature (22-24° C.) using glass electrodes made from thin wall borosilicate glass (3-5 MΩ). For electrophysiological recordings of inward Ca^2+ currents, outward K^+ currents were eliminated by equimolar substitution of K^+ with Cs^+ in the pipette solution, whereas inward Na^+ currents were eliminated by the use of TEA ions in the external solution, which are unable to go through voltage-gated Na^+ channels. […] To assess drug-evoked changes on specific ionic conductances, current amplitudes were expressed as current densities as previously reported. […] Cell capacitance was determined by integrating the transient current evoked by a 10-mV voltage step from a holding potential of −60 mV.
A MULTICLAMP 700A amplifier and PCLAMP software (Axon Instruments) was used to deliver voltage commands and to perform data acquisition and analysis. […] Only cells with stable seals and series resistance (≤10 MΩ) were analyzed. […]

[4] = test system: T-type Ca^2+ channels; assay: Whole-cell recording of T-type Ca2+ currents in differentiated ND7/23 cells; format: cell-based, mouse neuroblastoma and rat dorsal root ganglion cells; details: for Effect on T-type Ca2+ current density: vs non-treated cells
Description: as §1, §2, §3

[5] = test system: differentiated ND7/23 cells; assay: Intracellular calcium signals in differentiated ND7/23 cells stimulated with KCl or ionomycin; format: cell-based, mouse neuroblastoma and rat dorsal root ganglion cells; details: 10 μM, control cells
Description: FIGS. 14A-C. Effect of RHB121 on the intracellular calcium signals generated in differentiated ND7/23 cells following stimulation with 30 mM extracellular K+ ions or the calcium ionophore ionomycin (10 μM). FIG. 14A. […] FIG. 14B. […] FIG. 14C. Relative changes in the intracellular calcium signal generated in differentiated ND7/23 cells by 30 mM KCl or Ionomycin (10 μM) in control or RHB121-treated cells. Control groups were arbitrarily assigned a 100% intracellular calcium signal.
To assess the effect of RHB121 on intracellular calcium signals, differentiated ND7/23 cells with a high potassium concentration (30 mM KCl) were simulated. The effect of the calcium ionophore Ionomycin, which also can increase intracellular calcium by a different mechanism, independently of T-type Ca^2+ channel activation, was also tested. Stimulation of differentiated ND7/23 with 30 mM KCl external solution caused a small increase in the intracellular calcium signal (FIG. 14A).

[6] = increasing concentrations 1-50 μM
[7] = 50 μM, differentiated ND7/23 cells
[8] = 50 μM, HEK 293-Cav3.2 cells, vs non-treated cells

T2 sequence (O95180 whole entry): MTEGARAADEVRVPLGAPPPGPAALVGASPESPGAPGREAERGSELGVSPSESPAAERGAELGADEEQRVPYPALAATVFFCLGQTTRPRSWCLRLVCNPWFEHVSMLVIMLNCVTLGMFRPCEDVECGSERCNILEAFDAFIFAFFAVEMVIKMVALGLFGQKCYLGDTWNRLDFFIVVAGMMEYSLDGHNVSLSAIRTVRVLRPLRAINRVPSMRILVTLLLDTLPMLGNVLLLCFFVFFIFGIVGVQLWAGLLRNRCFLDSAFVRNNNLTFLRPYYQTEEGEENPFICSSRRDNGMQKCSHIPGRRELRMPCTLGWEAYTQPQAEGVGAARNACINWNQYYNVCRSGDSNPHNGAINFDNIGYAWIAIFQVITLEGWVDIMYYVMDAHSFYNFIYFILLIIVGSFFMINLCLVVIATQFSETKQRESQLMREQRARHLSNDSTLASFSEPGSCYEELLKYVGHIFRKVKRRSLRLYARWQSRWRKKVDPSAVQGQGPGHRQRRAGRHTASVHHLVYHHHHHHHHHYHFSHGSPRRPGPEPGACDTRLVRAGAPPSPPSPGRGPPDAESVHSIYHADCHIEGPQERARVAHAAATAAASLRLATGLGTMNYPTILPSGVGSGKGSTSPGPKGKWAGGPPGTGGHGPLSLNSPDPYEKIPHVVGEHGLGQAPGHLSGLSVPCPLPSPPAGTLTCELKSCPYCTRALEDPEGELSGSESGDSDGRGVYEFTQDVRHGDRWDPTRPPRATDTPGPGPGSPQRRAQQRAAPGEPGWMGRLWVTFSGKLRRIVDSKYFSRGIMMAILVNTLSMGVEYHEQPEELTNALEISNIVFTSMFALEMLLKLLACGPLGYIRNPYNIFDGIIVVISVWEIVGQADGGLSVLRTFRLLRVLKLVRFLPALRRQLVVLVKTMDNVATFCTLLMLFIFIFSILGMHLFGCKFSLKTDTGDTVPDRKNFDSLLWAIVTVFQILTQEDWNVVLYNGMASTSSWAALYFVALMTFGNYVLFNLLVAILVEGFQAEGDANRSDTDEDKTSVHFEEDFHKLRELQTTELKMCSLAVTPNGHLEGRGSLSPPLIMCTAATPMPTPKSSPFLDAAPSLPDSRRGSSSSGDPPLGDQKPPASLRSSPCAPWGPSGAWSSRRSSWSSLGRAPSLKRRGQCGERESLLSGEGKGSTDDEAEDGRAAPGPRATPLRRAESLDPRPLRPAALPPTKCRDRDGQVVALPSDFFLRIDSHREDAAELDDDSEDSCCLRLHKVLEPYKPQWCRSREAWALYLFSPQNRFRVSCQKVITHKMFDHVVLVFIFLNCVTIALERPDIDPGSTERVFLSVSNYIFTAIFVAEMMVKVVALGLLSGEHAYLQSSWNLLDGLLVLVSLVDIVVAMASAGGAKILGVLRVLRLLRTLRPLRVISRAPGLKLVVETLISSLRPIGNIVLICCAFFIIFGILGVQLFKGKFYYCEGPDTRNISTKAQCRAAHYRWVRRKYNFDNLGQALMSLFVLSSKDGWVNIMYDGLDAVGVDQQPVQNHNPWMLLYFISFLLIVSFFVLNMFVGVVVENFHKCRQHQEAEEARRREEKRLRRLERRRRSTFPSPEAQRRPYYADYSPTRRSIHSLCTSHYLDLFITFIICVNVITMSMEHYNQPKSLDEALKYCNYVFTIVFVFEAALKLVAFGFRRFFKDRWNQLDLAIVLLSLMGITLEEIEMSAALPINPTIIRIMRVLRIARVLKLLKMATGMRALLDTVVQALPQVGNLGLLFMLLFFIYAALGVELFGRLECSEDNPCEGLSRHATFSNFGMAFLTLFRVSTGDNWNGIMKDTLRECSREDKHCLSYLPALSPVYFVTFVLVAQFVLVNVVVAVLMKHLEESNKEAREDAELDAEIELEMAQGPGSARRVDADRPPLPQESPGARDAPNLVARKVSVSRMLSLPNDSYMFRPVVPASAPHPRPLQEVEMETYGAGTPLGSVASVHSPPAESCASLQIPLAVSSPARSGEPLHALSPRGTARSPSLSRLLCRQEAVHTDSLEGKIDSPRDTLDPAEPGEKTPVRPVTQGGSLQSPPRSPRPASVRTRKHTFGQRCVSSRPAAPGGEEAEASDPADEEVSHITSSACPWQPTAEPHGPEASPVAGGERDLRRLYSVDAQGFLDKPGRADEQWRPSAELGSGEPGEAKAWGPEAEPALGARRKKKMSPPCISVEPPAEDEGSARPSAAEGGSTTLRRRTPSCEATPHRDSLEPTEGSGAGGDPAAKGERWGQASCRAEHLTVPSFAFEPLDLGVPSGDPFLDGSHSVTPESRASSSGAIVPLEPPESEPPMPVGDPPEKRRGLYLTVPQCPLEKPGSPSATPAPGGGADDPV
T1 sequence (Q9P0X4 whole entry): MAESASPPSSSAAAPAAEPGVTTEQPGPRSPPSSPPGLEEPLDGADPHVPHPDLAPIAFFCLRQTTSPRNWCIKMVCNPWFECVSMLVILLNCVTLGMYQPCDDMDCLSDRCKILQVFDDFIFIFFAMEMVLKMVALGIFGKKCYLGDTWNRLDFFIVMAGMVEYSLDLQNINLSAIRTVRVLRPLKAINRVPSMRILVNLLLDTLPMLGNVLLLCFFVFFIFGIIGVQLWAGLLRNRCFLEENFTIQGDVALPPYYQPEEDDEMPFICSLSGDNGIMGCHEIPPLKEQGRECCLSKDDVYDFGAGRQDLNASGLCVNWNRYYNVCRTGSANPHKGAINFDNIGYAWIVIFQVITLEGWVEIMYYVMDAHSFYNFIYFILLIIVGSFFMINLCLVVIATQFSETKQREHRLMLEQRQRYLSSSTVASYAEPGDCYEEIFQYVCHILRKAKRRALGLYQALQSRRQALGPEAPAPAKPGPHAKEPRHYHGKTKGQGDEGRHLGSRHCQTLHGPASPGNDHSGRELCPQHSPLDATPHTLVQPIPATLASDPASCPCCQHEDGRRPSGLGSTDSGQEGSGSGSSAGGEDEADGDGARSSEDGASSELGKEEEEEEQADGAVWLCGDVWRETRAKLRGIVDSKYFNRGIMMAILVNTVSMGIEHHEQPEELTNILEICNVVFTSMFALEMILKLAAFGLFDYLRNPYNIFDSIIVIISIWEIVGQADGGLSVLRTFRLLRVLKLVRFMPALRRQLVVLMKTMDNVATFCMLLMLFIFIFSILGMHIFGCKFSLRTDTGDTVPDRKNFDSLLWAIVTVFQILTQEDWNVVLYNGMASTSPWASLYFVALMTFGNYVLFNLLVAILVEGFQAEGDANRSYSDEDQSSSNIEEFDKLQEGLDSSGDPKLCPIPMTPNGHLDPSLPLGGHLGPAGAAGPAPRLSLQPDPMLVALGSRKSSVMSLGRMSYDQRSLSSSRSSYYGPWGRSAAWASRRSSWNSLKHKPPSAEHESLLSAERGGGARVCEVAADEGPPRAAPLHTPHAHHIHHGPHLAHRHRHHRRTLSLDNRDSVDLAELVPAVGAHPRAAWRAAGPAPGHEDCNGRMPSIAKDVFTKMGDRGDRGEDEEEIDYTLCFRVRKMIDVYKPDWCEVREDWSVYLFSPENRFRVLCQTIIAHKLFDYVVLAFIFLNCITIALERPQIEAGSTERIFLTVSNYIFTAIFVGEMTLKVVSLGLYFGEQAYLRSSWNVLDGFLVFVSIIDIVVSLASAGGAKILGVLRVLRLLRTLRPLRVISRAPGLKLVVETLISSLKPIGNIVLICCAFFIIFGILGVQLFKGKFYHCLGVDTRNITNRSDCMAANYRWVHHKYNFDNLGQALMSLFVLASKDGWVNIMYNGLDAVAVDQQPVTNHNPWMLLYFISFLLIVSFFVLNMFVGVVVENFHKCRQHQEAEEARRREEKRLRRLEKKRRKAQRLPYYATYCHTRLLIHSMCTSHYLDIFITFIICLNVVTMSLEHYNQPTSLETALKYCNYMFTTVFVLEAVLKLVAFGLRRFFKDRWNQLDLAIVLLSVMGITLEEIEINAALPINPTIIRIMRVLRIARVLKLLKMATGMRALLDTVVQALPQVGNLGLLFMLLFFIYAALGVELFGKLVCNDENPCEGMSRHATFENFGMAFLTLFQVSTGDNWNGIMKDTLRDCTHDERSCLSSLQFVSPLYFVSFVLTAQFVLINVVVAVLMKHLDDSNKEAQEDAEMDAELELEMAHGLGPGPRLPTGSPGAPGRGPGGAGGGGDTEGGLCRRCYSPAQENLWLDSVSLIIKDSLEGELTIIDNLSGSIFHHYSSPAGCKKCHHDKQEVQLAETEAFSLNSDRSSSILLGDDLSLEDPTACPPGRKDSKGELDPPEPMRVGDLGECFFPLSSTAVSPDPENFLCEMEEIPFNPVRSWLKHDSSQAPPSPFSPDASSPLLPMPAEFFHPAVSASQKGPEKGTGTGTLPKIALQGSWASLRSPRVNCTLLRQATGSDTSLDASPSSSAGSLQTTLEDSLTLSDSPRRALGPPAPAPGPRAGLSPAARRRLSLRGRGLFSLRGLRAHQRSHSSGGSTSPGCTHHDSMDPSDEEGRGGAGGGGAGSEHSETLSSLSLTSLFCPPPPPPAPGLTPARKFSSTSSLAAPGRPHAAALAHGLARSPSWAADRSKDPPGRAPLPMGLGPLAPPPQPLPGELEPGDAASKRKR

## CC1CC(=O)C=C(NC(=O)c2cc(C(F)(F)F)cc(C(F)(F)F)c2)C1 (stereo not drawn) [IAA65, N-(5-methyl-3-oxocyclohex-1-en-1-yl)-3,5-bis(trifluoromethyl) benzamide]
[1]; 10 μM
  Effect on activation time constant (τ): rightward shift; also recorded: significant increase
  Effect on inactivation time constant (τ): significant reduction
  Effect on steady-state inactivation: no effect
  Effect on voltage-current relationship: considerable reduction
  Shift in voltage-dependence of T-type Ca2+ currents: no significant shift
[1]; 1-50 μM
  Effect on cell capacitance: no effect on call capacitance; also recorded: no effect on cell capacitance
[1]; [6]
  Effect on T-type Ca2+ current density: significant reduction
[1]; treated cells, 10 μM
  V1/2 of steady-state inactivation (Boltzmann fit): −58.5±2.1 mV
[2]; 10 μM
  Effect on activation time constant (τ): no significant changes; also recorded: no effect
  Effect on inactivation time constant (τ): no effect on the inactivation τ
  Effect on peak current: significant reduction
  Shift in voltage-dependence of T-type Ca2+ currents: without significant changes; also recorded: no significant shift
  Shift of the steady-state inactivation curve: leftward shift
[2]; 1-50 μM
  Effect on cell capacitance: no effect on cell capacitance
[2]; [6]
  Effect on T-type Ca2+ current density: significant reduction
[2]; treated cells, 10 μM
  V1/2 of steady-state inactivation (Boltzmann fit): −70.2±1.0 mV
[3]
  Effect on Na+ current density: no noticeable effect; also recorded: no effect on the Na^+ current densities
[4]; 50 μM, 5 min washout
  Reversal of the effect on T-type Ca2+ current density after drug washout: no significant recovery; also recorded: did not reverse the drug effect
[4]; [7]
  Effect on T-type Ca2+ current density: significant reduction
[4]; differentiated ND7/23 cells, read-out: IC50 on T-type Ca2+ current densities
  IC50: 10.6 µM

## C[C@H](CCC(=O)O)C[C@H](C)C[C@H](C)C(=O)/C=C(\O)[C@H](C)C[C@H](C)C/C=C/[C@@H](C)[C@@H](O)[C@@H](C)[C@@H](O)C[C@@H]1CC[C@@](C)([C@H]2CC[C@@](C)([C@@H](C)O)O2)O1 [Ionomycin, reference compound]
[5]
  Change in intracellular calcium signal on stimulation: significant increase

## CC1CC(=O)C=C(NC(=O)c2cccc(C(F)(F)F)c2)C1 (stereo not drawn) [IAB15, N-(5-methyl-3-oxocyclohex-1-en-1-yl)-3-(trifluoromethyl) benzamide]
[3]
  Effect on Na+ current density: no noticeable effect; also recorded: no effect on the Na^+ current densities
[4]; [7]
  Effect on T-type Ca2+ current density: significant reduction

## CC1CC(=O)C=C(NC(=O)c2cccc(OC(F)(F)F)c2)C1 (stereo not drawn) [ABA58]
[2]; 50 μM, HEK 293-Cav3.2 cells
  Effect on whole cell capacitance: no significant changes; also recorded: no effect on cell capacitance

## CC(C)C1CC(=O)C=C(NC(=O)c2ccc(C(F)(F)F)cc2)C1 (stereo not drawn) [IAC41, N-(5-isopropyl-3-oxocyclohex-1-en-1-yl)-4-(trifluoromethyl) benzamide]
[4]; [7]
  Effect on T-type Ca2+ current density: None of the tested compounds has any effect; also recorded: no effect on Ca^2+ current densities

## CC1CC(=O)C=C(NC(=O)c2ccccc2C(F)(F)F)C1 (stereo not drawn) [IAA61, N-(5-methyl-3-oxocyclohex-1-en-1-yl)-2-(trifluoromethyl) benzamide]
[3]
  Effect on Na+ current density: no noticeable effect
[4]; [7]
  Effect on T-type Ca2+ current density: no effect

## Cc1cc(C)cc(C(=O)NC2=CC(=O)CC(C)C2)c1 (stereo not drawn) [RHB59, 3,5-dimethyl-N-(5-methyl-3-oxocyclohex-1-en-1-yl)benzamide]
[2]; [8]
  Effect on T-type Ca2+ current density: No inhibitory effect

## CC1CC(=O)C=C(NC(=O)c2ccccc2F)C1 (stereo not drawn) [IAB67, 2-fluoro-N-(5-methyl-3-oxocyclohex-1-en-1-yl) benzamide]
[4]; [7]
  Effect on T-type Ca2+ current density: None of the tested compounds has any effect
[4]; 50 μM, differentiated ND7/23 cells, listed as IAB65
  Effect on T-type Ca2+ current density: no effect on Ca^2+ current densities

## CC1CC(=O)C=C(NC(=O)c2ccc(C(F)(F)F)cc2)C1 (stereo not drawn) [THA40, N-(5-methyl-3-oxocyclohex-1-en-1-yl)-4-(trifluoromethyl) benzamide]
[4]; [7]
  Effect on T-type Ca2+ current density: None of the tested compounds has any effect
[4]; 50 μM, differentiated ND7/23 cells, listed as TTA40
  Effect on T-type Ca2+ current density: no effect on Ca^2+ current densities

## O=C1C=C(NC(=O)c2cc(C(F)(F)F)cc(C(F)(F)F)c2)CC(C(F)(F)F)C1 (stereo not drawn) [RHB-77, N-(3-oxo-5-(trifluoromethyl)cyclohex-1-en-1-yl)-3,5-bis(trifluoromethyl)benzamide]
[2]; HEK293, 50 μM, Cav3.2 transfected HEK 293 cells, read-out: Inhibition of calcium currents on T-type calcium channels
  inhibition at 50 µM: 90%
[2]; HEK 293-Cav3.2 cells
  Concentration dependence of the inhibition of T-type Ca2+ currents: significant inhibition of T-type calcium currents in a concentration-dependent manner

## O=C1C=C(NC(=O)c2cc(F)cc(F)c2)CC(C(F)(F)F)C1 (stereo not drawn) [RHB107]
[2]; 50 μM, HEK 293-Cav3.2 cells
  Effect on whole cell capacitance: no significant changes; also recorded: no effect on cell capacitance

## O=C1C=C(NC(=O)c2cccc(C(F)(F)F)c2F)CC(C(F)(F)F)C1 (stereo not drawn) [RHB103]
[2]; [8]
  Effect on T-type Ca2+ current density: No inhibitory effect
